Laboratory results published in US10059708B2, “Therapeutic targeting of the interleukin 1 receptor-associated kinase 4 (IRAK4) in leukemias characterized by rearrangements in the mixed lineage leukemia gene (MLL-r)” (Northwestern University, priority 2016, dated 2018).
Entries after “also recorded” stand apart in the source; their conditions may differ.

Columns and labels:
MLL-AF9 leukemia = experiment: Murine MLL-AF9 leukemia transplantation model; format: in vivo, C57BL/6 mice; conditions: treatment from day 10 after transplantation; IRAK1/4 inhibitor 8 mg/kg, IRAK4 inhibitor 75 mg/kg i.p. every other day; vehicle mice all dead by 31 days
Description: After transformation of MLL-AF9, c-Kit+ HSPCs were transplanted into lethally irradiated C57BL/6 mice with 1 3 106 transformed cells and 2 3 105 support cells. Leukemia cells from primary AML mice were isolated and transplanted into sublethally irradiated C57BL/6 mice. Drug treatments were started at day 10 or 19 after transplantation. (B) Kaplan-Meier survival curves of secondary transplanted C57BL/6 mice after vehicle and IRAK1/4 or IRAK4 inhibitor treatment at day 19 (blast phase). Vehicle or IRAK inhibitors were administered every other day by intraperitoneal injection for a total of five treatments. Leukemia was confirmed at the endpoint for each transplant mouse. […] The p values were calculated using the log rank test. […] The p values were calculated using the log rank test. […]
We further assessed the effects of the IRAK inhibitors in vivo using the murine MLL-AF9 leukemia transplantation model (FIG. 7A) (Volk et al., 2014). […]
Murine MLL-AF9 Leukemia Model. […] The mice were monitored for signs of acute leukemia for 2-3 months and euthanized when leukemia was evident (weight loss below 16.75 g, reduced mobility, malaise, palpable spleen, and hunched back). […]
Animal Treatment. […] Mice were monitored for leukemia development and leukemia was verified after the mice were sacrificed upon signs of illness (weight loss below 16.75 g, partial paralysis, malaise, palpable spleen, and hunched back).

REH cells = experiment: REH cell proliferation (trypan blue, Vi-CELL XR); format: cell-based, human; conditions: IRAK1/4 inhibitor
Procedure: FIG. 4. […] Viable cells were seeded at 0.2 million/mL, and they were monitored by trypan blue exclusion staining and counted using a Vi-CELL XR cell counter. Data are represented as mean±SD (n=3). […] Data are represented as mean±SD (n=3). (C) Venn diagram of deregulated genes in SEM cells by IRAK1/4 and IRAK4 inhibitors. […] (D) Venn diagram of deregulated genes in SEM and REH cells by both inhibitors. Little overlap was observed between REH and SEM cells. […] Each cluster is represented by different colors and a circle node represents each enriched term. (G) UBE2O depletion and IRAK inhibition affect a common subset of genes in SEM cells. […] Heatmaps represent Z score-normalized values. See also FIG. 11.
Stabilization of MLL through IRAK Inhibition and UBE2O Depletion Regulates a Specific Gene Regulatory Network in MLL Leukemia. To measure the consequence of stabilizing MLL in MLL leukemia cells, we determined the effects of IRAK inhibition on cell proliferation of REH (MLL-germline leukemia) and SEM (MLL-AFF1) cells. Both of these cell lines are derived from precursor B cell ALL patient blast cells, and, therefore, they have been studied when comparing non-MLL (REH) and MLL-dependent (SEM) leukemia gene expression (Guenther et al., 2008).

MLL occupancy = experiment: MLL ChIP-seq in HEK293 cells; format: cell-based, human
Procedure: (§1) FIG. 3. […] (D) Halo-MLL-Inter-transfected HEK293 cells were treated with […]/4 inhibitor for 24 hr, purified with HaloLink resin, and subjected to MudPIT analysis. […] Each row represents a peak of MLL occupancy (n=6,250), with rows ordered by decreasing MLL occupancy in the inhibitor-treated condition. […] Boxplots depict the read coverage for all MLL peaks. The p value was calculated with the Wilcoxon signed-rank test. See also FIG. 10.
FIG. 10. […] Occupancy in reads per million (rpm)±3 kb around the center of peak is shown (N=6250). Genes are ordered by MLL occupancy in the inhibitor treatment. […] The read counts of all the MLL peaks were plotted and the Wilcoxon signed-rank test was used to calculate the p value (F).
Chromatin Immunoprecipitation Sequencing. […] ChIP-seq reads were aligned to the mouse (UCSC mm9) or human genome (UCSC hg19). Alignments were processed with Bowtie version 1.1.2, allowing only uniquely mapping reads with up to two mismatches within the 50 bp read. The resulting reads were extended to 150 bases toward the interior of the sequenced fragment and normalized to total reads aligned (reads per million, rpm). […] The average coverage (calculated using rpm tracks described above) across the entire region is shown in the boxplots where p values were calculated with the Wilcoxon signed-rank test. […]

MDS and T-ALL cells = conditions: subset of MDS and T-ALL cells with high expression of IRAK1; cited from earlier work
MLL-UBE2O interaction = MLL-UBE2O interaction (HaloTag purification, MudPIT, co-immunoprecipitation); format: cell-based, human; set-up: dose or concentration left out as unconfirmed; conditions: Halo-MLL-Inter-transfected HEK293 cells
Procedure: as §1

endogenous MLL protein = experiment: MLL protein levels / stability in HEK293 cells (western blotting, cycloheximide chase); format: cell-based, human; set-up: dose or concentration left out as unconfirmed; conditions: for indicated times or different concentrations for 24 hr, relative to DMSO
SEM and REH cells = experiment: Total RNA-seq, SEM versus REH cells; format: cell-based, human; conditions: 2 days of treatment
Procedure: Total RNA Sequencing. […] Total RNA was extracted from Trizol according to the manufacturer's instructions. The RNA was treated with DNase I (NEB) and cleaned with the QIAGEN RNeasy mini kit. 500 ng RNA was used for library preparation with TruSeq Stranded Total RNA with Ribo-Zero Gold kit (Illumina, RS-123-2201). The sequenced reads were aligned to the human genome (UCSC hgl9) with TopHat 2.1.0 using gene annotations from Ensembl 72. Differential gene expression was performed with EdgeR (Empirical analysis of digital gene expression data in R) version 3.08 (Robinson et al., 2010). Adjusted p values were computed using the Benjamini-Hochburg method. […] P values for Venn diagrams were performed with the hypergeometric test.

SEM cells = experiment: RNA-seq gene expression profiles of SEM cells, new versus commercial IRAK inhibitors; format: cell-based, human; conditions: 3 days
Description: FIG. 17. Comparison of novel IRAK4 inhibitors (NUCC numbers) with commercially available IRAK inhibitors (referred to here as IRAK1/4 and IRAK4) on gene expression in leukemia cells as determined by RNA-seq. SEM cells were maintained in IMDM medium with 10% FBS. […] SEM cells were harvested and used for total RNA-seq. A: PCA plot of each group with different treatments. […] B: Distance plot of each group with the indicated treatments.
The gene expression profiles of SEM cells treated with newly synthesized compound NUCC0200554 (Compound 16 of Example 2) and compound NUCC0200618 (Compound 21 of Example 2) as follows. After inhibitor treatment for 3 days, SEM cells were collected and lysed with Trizol reagent. Total RNA was extracted from Trizol according to the manufacturer's instructions. The RNA was treated with DNase I (NEB) and cleaned with the Qiagen RNeasy mini kit. 500 ng RNA was used for library preparation with TruSeq Stranded Total RNA with Ribo-Zero Gold kit (Illumina, RS-123-2201). The sequenced reads were aligned to the human genome (UCSC hgl9) with TopHat 2.1.0 using gene annotations from Ensembl 72. Differential gene expression was performed with Deseq2.

wild-type MLL protein = experiment: MLL stabilization assay (western blotting) with new compounds; format: cell-based; conditions: western blotting for MLL protein levels (FIG. 16A)
Procedure: (§2) FIG. 16. Development of novel compounds (NUCC0200618 and NUCC0200554) that stabilize the wild-type MLL protein and slow leukemic cell growth through IRAK4 inhibition. A) Western blotting for MLL protein levels in cells treated with the indicated compounds designed and synthesized at Northwestern. Protein stabilization is observed to increase by 6 hours of treatment. B) Luciferase-based IRAK4 kinase assays (Promega) with the indicated doses of the new compounds. C) Cell viability counts after 3 days of treatment with the indicated doses of the new compounds.
The newly synthesized compound NUCC0200554 (Compound 16 of Example 2) and compound NUCC0200618 (Compound 21 of Example 2) were further tested in MLL stabilization assay, in an IRAK4 kinase activity as described above, and in a SEM cell proliferation assay as follows. SEM (ACC-546) leukemia cells were maintained in Iscove's Modified Dulbecco's Medium (IMDM) with 10% FBS. Viable SEM cells were seeded at 0.2 million/ml, and treated with different concentrations of inhibitors at the indicated concentrations for three days. Viable cells were monitored by trypan blue exclusion staining and counted using a Vi-CELL XR cell counter. Data are represented as Mean±SD (n=3).

Human IRAK4 = target: T1, Human IRAK4 (Homo sapiens, UniProt Q9NWZ3); experiment: IRAK4 kinase inhibition assay (ADP-Glo); format: biochemical; conditions: for Inhibition of IRAK4 kinase activity: 100 uM of each inhibitor, 12.5 uM ATP, relative activity to DMSO (FIG. 15); for IRAK4 kinase inhibition: at increasing concentration (FIG. 16B)
T1 sequence (Q9NWZ3 1-460): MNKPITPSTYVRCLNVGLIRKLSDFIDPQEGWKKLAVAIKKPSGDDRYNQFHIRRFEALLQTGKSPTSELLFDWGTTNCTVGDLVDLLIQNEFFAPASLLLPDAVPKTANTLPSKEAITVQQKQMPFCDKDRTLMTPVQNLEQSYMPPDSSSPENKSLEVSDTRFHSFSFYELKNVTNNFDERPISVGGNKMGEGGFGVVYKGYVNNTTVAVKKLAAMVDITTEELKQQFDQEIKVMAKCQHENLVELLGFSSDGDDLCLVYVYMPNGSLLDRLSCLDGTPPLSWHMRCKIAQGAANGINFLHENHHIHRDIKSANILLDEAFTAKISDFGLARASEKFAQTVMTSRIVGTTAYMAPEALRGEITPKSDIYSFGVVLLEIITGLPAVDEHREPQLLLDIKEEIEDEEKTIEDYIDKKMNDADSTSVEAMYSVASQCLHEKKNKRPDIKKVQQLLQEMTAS
Procedure: FIG. 15. Inhibition of IRAK4 kinase activity by NU's IRAK4 kinase inhibitors. 10 ng IRAK4, 12.5 uM ATP and 500 ng MBP (substrate) were used in the IRAK4 kinase assay. 100 uM of each inhibitor were used individual in the assay and the reaction product ADP was detected by the ADP-GLO assay. Relative activity to DMSO is shown.
as §2
The newly synthesized compounds were tested in an IRAK4 kinase inhibition assay as follows. In a 10 μl reaction, 10 ng Human IRAK4, 12.5 μM ATP, 500 ng dephosphorylated MBP (EMD Millipore), and different IRAK inhibitors were used in 1× kinase buffer (60 mM HEPES-NaOH, pH 7.5, 3 mM MgCl2, 3 mM MnCl2, 1.2 mM DTT, 0.1% BSA) at room temperature for 45 minutes. The ADP formed from the kinase reaction was measured by the ADP-Glo™ Kinase Assay (Cat.#V9101) and the luminescence was measured with a Tecan Infinite M1000 plate reader.

| Inhibition of IRAK4 kinase activity (Human IRAK4) | IRAK4 kinase inhibition (Human IRAK4) | SMILES | mice that still did not develop MLL-AF9 leukemia as of day 55 (MLL-AF9 leukemia) | REH cell proliferation (REH cells) | genome-wide MLL occupancy (MLL occupancy; HEK293 cells, 6,250 MLL peaks) | MLL occupancy at MLL target genes HOXA, HOXC, FOXC1 (MLL occupancy; HEK293 cells, 24 hr, D2M7U and NT86 antibodies) | effect of IRAK1/4 inhibitor alone (MDS and T-ALL cells) | sensitization to BCL2 inhibitor treatment (MDS and T-ALL cells) | MLL-UBE2O interaction (MLL-UBE2O interaction) | MLL protein levels (MLL N320) (endogenous MLL protein) | MLL protein levels (MLL N320) (endogenous MLL protein; listed as IRAK1/4 inhibitor I) | genes downregulated in both REH and SEM cells (SEM and REH cells) [genes] | genes upregulated in both REH and SEM cells (SEM and REH cells) [genes] | PCA plot grouping of RNA-seq profile (SEM cells; 10 uM) | MLL stabilization (wild-type MLL protein) | PCA plot grouping of RNA-seq profile (SEM cells; 5 uM) |
| --- | --- | --- | --- | --- | --- | --- | --- | --- | --- | --- | --- | --- | --- | --- | --- | --- |
|  |  | O=C(Nc1nc2ccccc2n1CCN1CCOCC1)c1cccc([N+](=O)[O-])c1 [IRAK1/4 inhibitor] | eight of ten | no effect | significant increases in MLL occupancy; also recorded: MLL occupancy is significantly increased; also recorded: general increase in MLL occupancy | enhanced MLL occupancy; also recorded: increases MLL occupancy at HOXA and HOXC loci; also recorded: increased MLL occupancy | does not substantially impair these cells | sensitize a subset of MDS and T-ALL cells | substantially decreased; also recorded: decreases MLL-UBE2O interaction | stabilizes endogenous MLL protein; also recorded: stabilizes MLL protein from proteasomal degradation in a dose-dependent manner | increased levels of MLL protein in a time- and dose-dependent manner | 238 | 186 |  |  |  |
| inhibit IRAK4 kinase activity | inhibit IRAK4 kinase | Nc1cccc(-c2cnc(NC(=O)c3cccc(Cl)c3)[nH]2)c1 [NUCC0200554, N-(5-(3-aminophenyl)-1H-imidazol-2-yl)-3-chlorobenzamide] |  |  |  |  |  |  |  |  |  |  |  | very similar profiles | stabilize MLL |  |
| inhibit IRAK4 kinase activity | inhibit IRAK4 kinase | O=C(Nc1ncc(-c2cccc(O)c2)[nH]1)c1ccccc1 [NUCC0200618, N-(5-(3-hydroxyphenyl)-1H-imidazol-2-yl)benzamide] |  |  |  |  |  |  |  |  |  |  |  | group together | stabilize MLL | very similar profiles |
